In the test the target is human PAD4 (hPAD4) (Homo sapiens, UniProt Q9UM07). Briefly: RFMS human PAD4 functional assay (rapid-fire mass spectrum). It counts as biochemical. Particulars: 5 nM hPAD4 enzyme, 250 μM BAEE, 50 μM Calcium; 30 min preincubation, 90 min reaction at 37° C. An outline of the steps: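 PAD4 (10 nM) preincubated 30 min with compound (top final 50 μM), then BAEE substrate added in pH 7.5 HEPES buffer with DTT, 50 μM calcium, TPEN; 90 min at 37° C. After TCA quench, citrulline derivatized with phenyl glyoxal (4 mM final, 30 min, 37° C) and quantified by RapidFire MS against internal standard.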
Sequence of human PAD4 (hPAD4) (Q9UM07 whole entry): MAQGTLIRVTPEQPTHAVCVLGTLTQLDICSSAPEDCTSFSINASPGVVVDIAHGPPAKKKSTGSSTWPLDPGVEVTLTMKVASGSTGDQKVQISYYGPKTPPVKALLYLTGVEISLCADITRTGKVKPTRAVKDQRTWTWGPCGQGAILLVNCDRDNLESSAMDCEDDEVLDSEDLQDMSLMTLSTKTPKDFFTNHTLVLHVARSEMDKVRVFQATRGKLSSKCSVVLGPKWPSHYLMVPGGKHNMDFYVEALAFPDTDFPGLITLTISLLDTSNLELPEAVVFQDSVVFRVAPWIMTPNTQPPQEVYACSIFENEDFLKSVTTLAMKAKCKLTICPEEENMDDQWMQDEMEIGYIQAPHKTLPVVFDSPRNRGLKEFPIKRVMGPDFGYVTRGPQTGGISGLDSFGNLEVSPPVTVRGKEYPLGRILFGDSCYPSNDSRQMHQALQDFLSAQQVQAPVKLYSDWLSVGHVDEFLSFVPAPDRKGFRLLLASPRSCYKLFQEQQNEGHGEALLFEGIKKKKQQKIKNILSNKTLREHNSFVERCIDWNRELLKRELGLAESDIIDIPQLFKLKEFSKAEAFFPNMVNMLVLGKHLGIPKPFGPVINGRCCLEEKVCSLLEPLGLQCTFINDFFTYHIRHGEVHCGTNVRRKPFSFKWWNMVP

One may read the IC50 as the concentration that gives 50% inhibition. On to `COc1cc(C(=O)N2C[C@H]3CC[C@@H]2[C@@H]3N)cc2nc(-c3cc4ccccc4n3CC3CC3)n(Cc3cn[nH]c3)c12` [Example 247, (1-((1H-pyrazol-4-yl)methyl)-2-(1-(cyclopropylmethyl)-1H-indol-2-yl)-7-methoxy-1H-benzo[d]imidazol-5-yl)((1R,4R,7R)-7-amino-2-azabicyclo[2.2.1]heptan-2-yl)methanone], for which the half-inhibitory concentration (IC50) was 0.027 µM.

Turning to `COc1cc(C(=O)N2CC3CCC2[C@@H]3N)cc2nc(-c3cc4cccnc4n3CC3CC3)n(Cc3cnn(-c4ccc(Cl)cn4)c3)c12` (stereo partly drawn) [Example 360, (7R)-2-(1-{[1-(5-chloropyridin-2-yl)-1H-pyrazol-4-yl]methyl}-2-[1-(cyclopropylmethyl)-1H-pyrrolo[2,3-b]pyridin-2-yl]-7-methoxy-1H-1,3-benzodiazole-5-carbonyl)-2-azabicyclo[2.2.1]heptan-7-amine], the IC50 came to 0.024 µM.

In the case of `COc1cc(C(=O)N2CCC[C@@H](N)C2)cc2nc(-c3cc4ccccc4n3CC3CC3)n(Cc3cnn(C)c3)c12` [Example 267, (3R)-1-{2-[1-(cyclopropylmethyl)-1H-indol-2-yl]-7-methoxy-1-[(1-methyl-1H-pyrazol-4-yl)methyl]-1H-1,3-benzodiazole-5-carbonyl}piperidin-3-amine], the IC50 was 0.098 µM.

For the molecule `COc1cc(C(=O)N2C[C@H]3CC[C@@H]2[C@@H]3N)cc2nc(-c3cc4ccccc4n3CC3CC3)n(CC3CN(C(=O)c4ccc(C#N)c(F)c4)C3)c12` [Example 135, 4-[3-({5-[(1R,4R,7R)-7-amino-2-azabicyclo[2.2.1]heptane-2-carbonyl]-2-[1-(cyclopropylmethyl)-1H-indol-2-yl]-7-methoxy-1H-1,3-benzodiazol-1-yl}methyl)azetidine-1-carbonyl]-2-fluorobenzonitrile], the 50% inhibitory concentration (IC50) came out at 0.008 µM.

On to `COc1cc(C(=O)N2CC3CCC2[C@@H]3N)cc2nc(-c3csc4ccc(Cl)cc34)n(CC3CN(c4ccnc(C(N)=O)n4)C3)c12` (stereo partly drawn) [Example 320, 4-[3-({5-[(1R,4R,7R)-7-amino-2-azabicyclo[2.2.1]heptane-2-carbonyl]-2-(5-chloro-1-benzothiophen-3-yl)-7-methoxy-1H-1,3-benzodiazo1-1-yl}methyl)azetidin-1-yl]pyrimidine-2-carboxamide], for which the IC50 worked out at 1.35 µM.

On to `COc1cc(C(=O)N2CC3CCC2[C@@H]3N)cc2nc(-c3cc4cccnc4n3CC3CC3)n([C@H]3C[C@@H](NC(C)=O)C3)c12` (stereo partly drawn) [Example 304, N-[(1s,3s)-3-{5-[(1R,4R,7R)-7-ammo-2-azabicyclo[2.2.1]heptane-2-carbonyl]-2-[1-(cyclopropylmethyl)-1H-pyrrolo[2,3-b]pyridin-2-yl]-7-methoxy-1H-1,3-benzodiazol-1-yl}cyclobutyl]acetamide], for which the 50% inhibitory concentration (IC50) came out at 2.88 µM.

In the case of `COc1cc(C(=O)N2C[C@H](N)C[C@@H](F)C2)cc2nc(-c3cc4cccnc4n3CC3CC3)n(CC3(C)CN(C(=O)c4ccccc4)C3)c12` [Example 469, (3R,5R)-1-{1-[(1-benzoyl-3-methylazetidin-3-yl)methyl]-2-[1-(cyclopropylmethyl)-1H-pyrrolo[2,3-b]pyridin-2-yl]-7-methoxy-1H-1,3-benzodiazole-5-carbonyl}-5-fluoropiperidin-3-amine], the IC50 was 0.129 µM.

In the case of `N#Cc1ccc(C(=O)N2CC(Cn3c(-c4cc5ccccc5n4CC4CC4)nc4cc(C(=O)N5C[C@H]6CC[C@@H]5[C@@H]6N)cc(F)c43)C2)cc1` [Example 92, 4-(3-((5-((1R,4R,7R)-7-amino-2-azabicyclo[2.2.1]heptane-2-carbonyl)-2-(1-(cyclopropylmethyl)-1H-indol-2-yl)-7-fluoro-1H-benzo[d]imidazol-1-yl)methyl)azetidine-1-carbonyl)benzonitrile], the IC50 was determined as 0.012 µM.

Values taken from patent publication US12692254B2, “Benzimidazole inhibitors of PAD enzymes” (BRISTOL-MYERS SQUIBB COMPANY, priority 2018, dated 2026).
